One data set can be described thus: physchem. The text has this: The exact method for determining this is described hereinafter.
The method of solubility used to determine the data in Table I, is described in the Analytical Methods section below.

Data set [1] in a line: Bioavailability of calcium citrate malate (statement). To be noted: even under neutral conditions.

Turning to `O=C(O)CC(O)C(=O)O` (racemic) [calcium malate], the solubility in “physchem” was found to be 660 mg/mL. On to calcium citrate malate, for which, in data set [1], the “bioavailability” value is “bioavailable”.

The record behind these values is patent US5215769A, “Calcium fortified dressing salad product” (The Procter & Gamble Company, priority 1992, dated 1993).
